Target: T1, Tyrosine-protein kinase JAK3 (Homo sapiens, UniProt P52333)
T1 sequence (P52333 whole entry): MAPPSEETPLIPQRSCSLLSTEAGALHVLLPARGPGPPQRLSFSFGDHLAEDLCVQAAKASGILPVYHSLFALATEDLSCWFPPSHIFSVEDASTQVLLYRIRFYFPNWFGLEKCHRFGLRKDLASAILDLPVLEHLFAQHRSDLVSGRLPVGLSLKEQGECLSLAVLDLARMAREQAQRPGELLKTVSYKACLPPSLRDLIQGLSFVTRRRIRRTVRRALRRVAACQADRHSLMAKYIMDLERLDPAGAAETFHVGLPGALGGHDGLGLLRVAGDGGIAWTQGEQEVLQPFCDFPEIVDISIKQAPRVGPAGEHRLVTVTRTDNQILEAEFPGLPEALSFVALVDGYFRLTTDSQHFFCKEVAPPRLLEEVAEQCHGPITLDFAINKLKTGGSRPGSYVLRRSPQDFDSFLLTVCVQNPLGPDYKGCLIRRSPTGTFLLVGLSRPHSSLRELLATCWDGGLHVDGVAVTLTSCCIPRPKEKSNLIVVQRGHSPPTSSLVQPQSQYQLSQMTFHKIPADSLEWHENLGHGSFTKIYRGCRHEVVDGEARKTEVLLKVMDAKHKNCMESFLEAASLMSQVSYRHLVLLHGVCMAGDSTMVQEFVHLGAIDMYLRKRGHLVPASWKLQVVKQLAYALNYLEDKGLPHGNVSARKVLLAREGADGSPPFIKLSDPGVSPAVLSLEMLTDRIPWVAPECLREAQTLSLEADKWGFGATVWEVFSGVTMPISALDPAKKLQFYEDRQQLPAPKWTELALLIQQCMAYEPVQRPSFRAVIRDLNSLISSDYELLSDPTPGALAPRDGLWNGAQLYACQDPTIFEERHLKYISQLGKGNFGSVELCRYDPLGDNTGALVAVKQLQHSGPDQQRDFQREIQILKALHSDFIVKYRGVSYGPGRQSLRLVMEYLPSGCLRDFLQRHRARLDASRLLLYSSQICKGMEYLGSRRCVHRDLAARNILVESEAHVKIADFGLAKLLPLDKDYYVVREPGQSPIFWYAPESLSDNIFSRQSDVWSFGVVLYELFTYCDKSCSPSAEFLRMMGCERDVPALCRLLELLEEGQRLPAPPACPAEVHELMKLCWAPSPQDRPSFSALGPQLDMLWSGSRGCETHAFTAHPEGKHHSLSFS
Experiment: JAK3 Inhibition Assay
Conditions: pH 7.5; 22 °C
Protocol: An ELISA assay was used to determine the ability of inhibitor to inhibit JAK3 […] activity. The compounds were incubated with enzyme, 10 uM ATP, and biotinylated peptide substrate. Phosphorylated tyrosine was then detected by sequential incubation with anti-phosphotyrosine antibody.

IC50: 957 nM
SMILES: O=C1c2ccccc2-c2n[nH]c3cccc1c23

Source: BindingDB's records for doi:10.1021/jm800662z (Johnson & Johnson Pharmaceutical, 2008)
